Experiment [1] has as its target Serine/threonine-protein kinase 16 (Homo sapiens, UniProt O75716). The experiment can be described thus: Selectivity interaction (KinomeScan (DiscoverX)) EUB0001079a STK16. Conditions: at 1 µM.
Experiment [2] has as its target Mitogen-activated protein kinase 3 (Homo sapiens, UniProt P27361). In words: Selectivity interaction (KinomeScan (DiscoverX)) EUB0000695a MAPK3. As to conditions: at 100 nM.
Experiment [3] concerns the target Histamine H1 receptor (Homo sapiens, UniProt P35367). The experiment can be described thus: Selectivity interaction (Eurofins CEREP Diversity Profile (receptors and ion channels)) EUB0000279b HRH1. Conditions: at 10 µM.
In experiment [4] the target is T1, Serine/threonine-protein kinase RIO3 (Homo sapiens) (UniProt O14730).
T1 sequence (whole entry): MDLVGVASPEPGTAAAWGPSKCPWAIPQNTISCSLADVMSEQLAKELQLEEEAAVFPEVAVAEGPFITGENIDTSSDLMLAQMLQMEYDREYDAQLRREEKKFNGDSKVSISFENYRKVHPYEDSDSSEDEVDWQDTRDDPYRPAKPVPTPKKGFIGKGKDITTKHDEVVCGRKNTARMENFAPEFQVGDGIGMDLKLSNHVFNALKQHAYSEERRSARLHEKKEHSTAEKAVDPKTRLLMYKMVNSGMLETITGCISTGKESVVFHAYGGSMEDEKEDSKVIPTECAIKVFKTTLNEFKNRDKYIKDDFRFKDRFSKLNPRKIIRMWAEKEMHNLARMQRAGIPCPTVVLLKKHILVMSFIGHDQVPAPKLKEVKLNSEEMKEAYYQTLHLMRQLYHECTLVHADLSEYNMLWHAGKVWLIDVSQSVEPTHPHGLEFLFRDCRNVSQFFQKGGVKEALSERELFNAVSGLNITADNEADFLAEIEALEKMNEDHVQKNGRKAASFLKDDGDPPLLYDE
In words: Selectivity interaction (KinomeScan (DiscoverX)) EUB0000045b RIOK3.

Experiment [5] deals with NT-3 growth factor receptor (Homo sapiens, UniProt Q16288). In words: Selectivity interaction (Kinase panel (Z-LYTE Assay)) EUB0001632a NTRK3. Conditions: at 10 µM.
Sequence of NT-3 growth factor receptor (Q16288 32-839 limits assumed): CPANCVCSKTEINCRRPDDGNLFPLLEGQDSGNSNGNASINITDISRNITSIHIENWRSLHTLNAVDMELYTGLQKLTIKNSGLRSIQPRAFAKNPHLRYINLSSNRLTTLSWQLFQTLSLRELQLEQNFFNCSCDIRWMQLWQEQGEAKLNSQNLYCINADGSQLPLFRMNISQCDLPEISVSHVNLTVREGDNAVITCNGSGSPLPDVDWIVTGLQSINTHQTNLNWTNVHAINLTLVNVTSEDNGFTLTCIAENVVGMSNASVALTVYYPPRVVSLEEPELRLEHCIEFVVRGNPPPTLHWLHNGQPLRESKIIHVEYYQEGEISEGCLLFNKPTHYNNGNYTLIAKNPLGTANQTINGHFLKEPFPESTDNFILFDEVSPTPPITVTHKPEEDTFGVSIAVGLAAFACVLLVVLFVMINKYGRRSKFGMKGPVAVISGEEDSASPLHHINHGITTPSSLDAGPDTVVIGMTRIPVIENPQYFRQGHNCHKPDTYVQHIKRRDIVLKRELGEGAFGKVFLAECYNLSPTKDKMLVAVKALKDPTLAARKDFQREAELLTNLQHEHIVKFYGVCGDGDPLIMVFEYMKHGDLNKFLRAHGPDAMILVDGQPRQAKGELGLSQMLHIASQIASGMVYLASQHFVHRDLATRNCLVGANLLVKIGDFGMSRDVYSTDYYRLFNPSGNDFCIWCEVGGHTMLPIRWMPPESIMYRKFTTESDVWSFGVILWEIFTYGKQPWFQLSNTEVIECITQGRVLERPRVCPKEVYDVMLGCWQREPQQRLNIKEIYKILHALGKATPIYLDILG
Experiment [6] addresses Protein-tyrosine kinase 2-beta (Homo sapiens) (UniProt Q14289). In words: Selectivity interaction (KinomeScan (DiscoverX)) EUB0000607a PTK2B. Conditions: at 10 µM.
Experiment [7] deals with Tyrosine-protein kinase ABL2 (Homo sapiens, UniProt P42684). The experiment can be described thus: Selectivity interaction (ActivX KiNativ screen (kinase selectivity in THP-1 cell lysates)) EUB0000639a ABL2. Format: subcellular. As to conditions: lysate, at 5 µM.
Sequence of Tyrosine-protein kinase ABL2 (P42684 whole entry): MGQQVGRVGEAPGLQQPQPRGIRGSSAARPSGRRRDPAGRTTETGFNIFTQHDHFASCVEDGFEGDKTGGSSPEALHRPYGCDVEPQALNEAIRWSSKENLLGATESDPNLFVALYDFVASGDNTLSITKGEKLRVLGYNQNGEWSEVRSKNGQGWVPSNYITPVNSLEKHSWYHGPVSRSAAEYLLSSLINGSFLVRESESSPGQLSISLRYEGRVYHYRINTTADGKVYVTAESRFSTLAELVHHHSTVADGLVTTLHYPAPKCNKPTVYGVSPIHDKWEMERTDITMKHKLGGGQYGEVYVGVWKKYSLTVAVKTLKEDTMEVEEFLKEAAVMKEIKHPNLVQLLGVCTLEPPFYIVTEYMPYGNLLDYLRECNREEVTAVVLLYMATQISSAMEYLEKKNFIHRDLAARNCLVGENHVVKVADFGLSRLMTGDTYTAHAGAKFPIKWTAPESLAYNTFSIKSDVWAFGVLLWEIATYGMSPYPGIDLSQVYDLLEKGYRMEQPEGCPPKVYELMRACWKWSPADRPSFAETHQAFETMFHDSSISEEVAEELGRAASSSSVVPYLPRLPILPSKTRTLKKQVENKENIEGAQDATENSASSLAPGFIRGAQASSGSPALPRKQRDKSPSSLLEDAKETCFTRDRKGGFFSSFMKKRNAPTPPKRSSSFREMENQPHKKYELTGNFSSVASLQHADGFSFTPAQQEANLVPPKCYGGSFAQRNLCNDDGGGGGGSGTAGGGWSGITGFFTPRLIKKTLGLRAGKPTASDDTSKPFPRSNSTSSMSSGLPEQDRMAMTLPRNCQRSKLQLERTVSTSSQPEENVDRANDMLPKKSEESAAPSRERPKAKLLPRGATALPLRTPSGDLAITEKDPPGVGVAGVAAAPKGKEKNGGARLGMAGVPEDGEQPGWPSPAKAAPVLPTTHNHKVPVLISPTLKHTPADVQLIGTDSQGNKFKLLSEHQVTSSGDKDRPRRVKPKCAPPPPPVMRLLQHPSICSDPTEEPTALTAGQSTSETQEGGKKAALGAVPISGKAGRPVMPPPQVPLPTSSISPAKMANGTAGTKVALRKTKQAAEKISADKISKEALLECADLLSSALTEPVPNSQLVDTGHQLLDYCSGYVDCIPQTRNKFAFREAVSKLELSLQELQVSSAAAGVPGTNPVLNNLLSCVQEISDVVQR
The target of experiment [8] is T2, Serine/threonine-protein kinase ULK1 (Homo sapiens) (UniProt O75385).
T2 sequence (whole entry): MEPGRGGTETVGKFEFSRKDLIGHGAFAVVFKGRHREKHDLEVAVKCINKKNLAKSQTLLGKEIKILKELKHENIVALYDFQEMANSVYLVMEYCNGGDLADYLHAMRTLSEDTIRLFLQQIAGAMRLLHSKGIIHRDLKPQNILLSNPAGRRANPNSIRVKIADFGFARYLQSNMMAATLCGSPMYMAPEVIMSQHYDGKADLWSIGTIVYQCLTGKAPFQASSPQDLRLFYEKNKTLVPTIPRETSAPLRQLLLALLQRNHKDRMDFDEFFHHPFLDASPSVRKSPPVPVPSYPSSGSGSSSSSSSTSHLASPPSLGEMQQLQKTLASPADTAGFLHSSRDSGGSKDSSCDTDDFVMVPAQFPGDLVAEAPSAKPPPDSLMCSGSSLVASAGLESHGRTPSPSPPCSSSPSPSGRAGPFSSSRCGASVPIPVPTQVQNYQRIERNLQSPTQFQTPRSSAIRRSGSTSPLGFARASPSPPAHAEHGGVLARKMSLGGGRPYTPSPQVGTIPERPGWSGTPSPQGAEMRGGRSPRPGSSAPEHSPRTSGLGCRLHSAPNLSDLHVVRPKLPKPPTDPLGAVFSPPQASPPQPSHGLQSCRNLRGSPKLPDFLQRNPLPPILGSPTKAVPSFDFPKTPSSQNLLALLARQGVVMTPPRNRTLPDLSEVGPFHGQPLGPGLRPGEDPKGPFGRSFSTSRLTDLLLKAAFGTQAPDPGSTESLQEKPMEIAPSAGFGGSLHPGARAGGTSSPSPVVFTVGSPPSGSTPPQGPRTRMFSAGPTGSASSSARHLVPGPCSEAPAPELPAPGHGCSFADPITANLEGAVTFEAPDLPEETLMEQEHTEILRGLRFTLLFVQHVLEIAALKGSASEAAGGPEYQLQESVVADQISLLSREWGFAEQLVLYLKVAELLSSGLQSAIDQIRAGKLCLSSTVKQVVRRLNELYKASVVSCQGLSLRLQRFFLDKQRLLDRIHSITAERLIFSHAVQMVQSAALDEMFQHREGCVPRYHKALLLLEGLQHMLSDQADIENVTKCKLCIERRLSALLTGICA
In words: Selectivity interaction (KinomeScan (DiscoverX)) EUB0000229b ULK1. Conditions: at 10 µM.

In experiment [9] the target is Cyclin-dependent kinase 19 (Homo sapiens) (UniProt Q9BWU1). In words: Selectivity interaction (KinomeScan (DiscoverX)) EUB0000229b CDK19. Conditions: at 10 µM.
Sequence of Cyclin-dependent kinase 19 (Homo sapiens) (Q9BWU1 whole entry): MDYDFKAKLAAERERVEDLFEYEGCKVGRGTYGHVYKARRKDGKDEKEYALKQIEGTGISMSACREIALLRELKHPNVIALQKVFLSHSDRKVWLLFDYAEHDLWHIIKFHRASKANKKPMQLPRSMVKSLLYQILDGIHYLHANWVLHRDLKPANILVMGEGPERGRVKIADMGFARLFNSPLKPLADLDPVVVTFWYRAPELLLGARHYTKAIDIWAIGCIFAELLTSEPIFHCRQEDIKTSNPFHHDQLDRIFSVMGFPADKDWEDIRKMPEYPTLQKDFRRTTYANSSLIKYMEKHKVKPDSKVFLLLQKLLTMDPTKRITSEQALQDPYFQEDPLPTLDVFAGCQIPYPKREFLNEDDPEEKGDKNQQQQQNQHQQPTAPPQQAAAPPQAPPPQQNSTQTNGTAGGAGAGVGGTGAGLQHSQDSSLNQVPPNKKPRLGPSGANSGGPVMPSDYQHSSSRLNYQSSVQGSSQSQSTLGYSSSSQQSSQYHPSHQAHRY
In experiment [10] the target is Serine/threonine-protein kinase WNK2 (Homo sapiens) (UniProt Q9Y3S1). In words: Selectivity interaction (ActivX KiNativ screen (ex vivo kinase selectivity in human PBMCs)) EUB0001619a WNK2. Format: cell-based. As to conditions: PBMC, at 1 µM.
For experiment [11], the target named is T3, Serine/threonine-protein kinase BRSK2 (Homo sapiens) (UniProt Q8IWQ3).
T3 sequence (whole entry): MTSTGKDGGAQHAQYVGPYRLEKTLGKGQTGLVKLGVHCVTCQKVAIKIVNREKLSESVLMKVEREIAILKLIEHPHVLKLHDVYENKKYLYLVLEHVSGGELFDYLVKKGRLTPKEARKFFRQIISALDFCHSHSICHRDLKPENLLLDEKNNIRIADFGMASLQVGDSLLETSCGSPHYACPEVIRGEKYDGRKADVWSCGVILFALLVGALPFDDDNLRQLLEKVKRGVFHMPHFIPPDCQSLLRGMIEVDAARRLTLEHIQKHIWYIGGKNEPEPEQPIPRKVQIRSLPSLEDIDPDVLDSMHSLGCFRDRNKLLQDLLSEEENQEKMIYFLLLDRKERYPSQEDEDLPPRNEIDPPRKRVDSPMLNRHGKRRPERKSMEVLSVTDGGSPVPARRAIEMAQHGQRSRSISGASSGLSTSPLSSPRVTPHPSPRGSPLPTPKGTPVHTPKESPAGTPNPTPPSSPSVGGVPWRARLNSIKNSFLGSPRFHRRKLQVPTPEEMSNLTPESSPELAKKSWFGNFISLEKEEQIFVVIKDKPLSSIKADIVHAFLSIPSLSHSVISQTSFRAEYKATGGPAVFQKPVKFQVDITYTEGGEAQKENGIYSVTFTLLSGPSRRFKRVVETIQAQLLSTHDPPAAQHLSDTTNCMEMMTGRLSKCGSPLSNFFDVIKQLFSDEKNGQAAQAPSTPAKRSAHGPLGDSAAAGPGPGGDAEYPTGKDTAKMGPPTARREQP
In words: Selectivity interaction (KinomeScan (DiscoverX)) EUB0001619a BRSK2. As to conditions: at 1 µM.

Sequence of Histamine H1 receptor (P35367 whole entry): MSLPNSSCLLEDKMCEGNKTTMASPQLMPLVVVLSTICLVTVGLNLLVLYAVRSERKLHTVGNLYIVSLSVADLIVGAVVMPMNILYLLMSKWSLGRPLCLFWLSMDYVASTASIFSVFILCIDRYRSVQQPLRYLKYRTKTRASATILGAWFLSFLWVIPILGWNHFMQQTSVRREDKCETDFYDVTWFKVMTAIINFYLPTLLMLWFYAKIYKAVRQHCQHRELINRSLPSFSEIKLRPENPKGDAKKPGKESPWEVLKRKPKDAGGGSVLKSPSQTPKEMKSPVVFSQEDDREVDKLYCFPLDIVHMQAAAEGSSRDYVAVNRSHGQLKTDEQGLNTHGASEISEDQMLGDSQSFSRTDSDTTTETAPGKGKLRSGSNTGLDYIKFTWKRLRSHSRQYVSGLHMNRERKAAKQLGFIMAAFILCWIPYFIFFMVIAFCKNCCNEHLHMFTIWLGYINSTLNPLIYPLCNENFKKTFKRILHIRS
Sequence of Mitogen-activated protein kinase 3 (P27361 whole entry): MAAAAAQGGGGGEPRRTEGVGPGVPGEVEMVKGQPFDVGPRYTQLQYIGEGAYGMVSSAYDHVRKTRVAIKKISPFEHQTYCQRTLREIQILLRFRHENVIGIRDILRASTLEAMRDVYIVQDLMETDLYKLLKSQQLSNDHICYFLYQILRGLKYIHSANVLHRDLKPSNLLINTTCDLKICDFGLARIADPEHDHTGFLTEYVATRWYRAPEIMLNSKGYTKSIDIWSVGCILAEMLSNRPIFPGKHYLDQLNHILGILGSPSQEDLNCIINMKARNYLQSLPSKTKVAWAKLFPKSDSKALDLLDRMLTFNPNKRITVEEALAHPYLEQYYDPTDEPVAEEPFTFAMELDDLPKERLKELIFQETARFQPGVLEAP
Sequence of Protein-tyrosine kinase 2-beta (Homo sapiens) (Q14289 whole entry, looked up): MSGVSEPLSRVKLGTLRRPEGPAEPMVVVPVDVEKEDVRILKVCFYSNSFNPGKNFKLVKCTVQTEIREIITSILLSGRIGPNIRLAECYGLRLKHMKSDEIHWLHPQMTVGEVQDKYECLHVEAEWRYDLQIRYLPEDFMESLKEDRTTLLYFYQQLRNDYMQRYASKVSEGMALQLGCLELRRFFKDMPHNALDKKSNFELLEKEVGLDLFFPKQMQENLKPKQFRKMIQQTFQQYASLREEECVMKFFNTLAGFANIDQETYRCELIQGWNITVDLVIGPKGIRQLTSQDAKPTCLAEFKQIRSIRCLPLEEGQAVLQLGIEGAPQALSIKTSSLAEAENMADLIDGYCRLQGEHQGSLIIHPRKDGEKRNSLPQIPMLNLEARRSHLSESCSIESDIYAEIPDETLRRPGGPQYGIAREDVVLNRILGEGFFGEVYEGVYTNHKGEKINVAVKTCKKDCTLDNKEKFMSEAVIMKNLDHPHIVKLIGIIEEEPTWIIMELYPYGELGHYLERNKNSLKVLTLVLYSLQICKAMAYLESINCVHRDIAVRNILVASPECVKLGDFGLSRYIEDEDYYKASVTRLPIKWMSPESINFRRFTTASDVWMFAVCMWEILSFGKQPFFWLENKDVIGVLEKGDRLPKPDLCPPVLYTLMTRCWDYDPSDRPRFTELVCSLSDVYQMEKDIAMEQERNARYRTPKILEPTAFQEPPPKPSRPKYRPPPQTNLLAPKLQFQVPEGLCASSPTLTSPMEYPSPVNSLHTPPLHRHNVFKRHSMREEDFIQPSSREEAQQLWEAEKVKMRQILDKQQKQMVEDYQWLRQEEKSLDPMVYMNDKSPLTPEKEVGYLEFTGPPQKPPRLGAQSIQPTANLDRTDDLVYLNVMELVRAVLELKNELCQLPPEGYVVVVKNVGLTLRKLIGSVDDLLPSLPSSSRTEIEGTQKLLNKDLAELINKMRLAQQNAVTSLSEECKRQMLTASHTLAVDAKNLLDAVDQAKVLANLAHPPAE
Sequence of Serine/threonine-protein kinase 16 (O75716 whole entry): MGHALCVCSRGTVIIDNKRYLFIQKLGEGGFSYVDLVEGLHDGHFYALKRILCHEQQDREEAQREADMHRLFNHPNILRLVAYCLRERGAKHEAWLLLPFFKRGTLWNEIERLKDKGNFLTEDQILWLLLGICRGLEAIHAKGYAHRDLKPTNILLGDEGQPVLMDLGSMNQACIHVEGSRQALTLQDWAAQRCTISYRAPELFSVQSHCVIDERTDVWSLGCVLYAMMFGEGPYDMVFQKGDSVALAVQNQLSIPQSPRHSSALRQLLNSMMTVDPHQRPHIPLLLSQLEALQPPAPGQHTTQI

As for `Nc1cnc(N2CCc3cc(S(=O)(=O)Nc4c(F)cc(Cl)cc4F)cc(N4CCCC4=O)c32)nc1` [TP-020n], the % of control in experiment [1] is 100%.

Compound `Cc1cc(F)c(C(=O)Nc2cccc(-c3nncn3C(C)C)n2)cc1-n1cnc(C2CC2)c1` had a % of control in experiment [2] of 97%.

Regarding `CC(=O)c1cc(-c2ccccc2OCC2CC2)c2ncccn12`, the % of control in experiment [3] came out at 107%.

Consider `C=CC(=O)Nc1cc(-n2c(=O)ccc3cnc4ccc(-c5ccc(NS(C)(=O)=O)cc5)cc4c32)ccc1C`, for which the values for the % of control in experiment [4] (at 1 µM) and in experiment [4] (at 10 µM) were 55% and 60%, respectively.

On to `Cn1cc(-n2cnc3c(NCc4nc5cc(Cl)c(Cl)cc5[nH]4)nc(N4CCOCC4)nc32)cn1`, for which, in experiment [5], the % of control amounted to 19%.

Turning to `CNC(=O)Nc1ccc(-c2nc(N3CC4CCC(C3)O4)c3cnn(C4CCC5(CC4)OCCO5)c3n2)cc1`, the % of control in experiment [6] is 100%.

For the compound `CC[C@@H]1[C@H](F)C(=O)N[C@@H]1COc1nccc2cc(C(N)=O)c(OC)cc12` [ZIMLOVISERTIB], the % of inhibition in experiment [7] amounted to 30.7%.

Turning to `COc1cc(N(C)c2ccnc3ccc(C(F)(F)F)cc23)cc(OC)c1OC`, the % binding in experiment [8] was found to be 73%; in experiment [9] it was 69%.

As for `N#Cc1cccc(-c2c[nH]c3ncnc(N4CCOCC4)c23)c1`, in [10], the % of inhibition was -1%. In experiment [11], the % of control is 85%.

The record behind these values is ChEMBL document CHEMBL5465560, “Selectivity Literature for EUbOPEN Chemogenomic Library” (2024).
